Test results as given in US20110263557A1, “COMPOUNDS AND COMPOSITIONS AS MODULATORS OF GPR119 ACTIVITY” (IRM LLC, priority 2008, published 2011).
pEC50: −log10 of the molar value.

target: T1, human GPR119 (Homo sapiens, UniProt Q8TDV5); assay: Cyclic AMP assay in stable cell line (Flp-In-CHO-hGPR119, HTRF); format: cell-based; details: Flp-In-CHO-hGPR119 cells, intracellular cAMP by HTRF, 1 mM IBMX, 37° C. for 30 minutes; read-out: CHO-GPR119-HTRF (3158)
T1 construct: expressed in transfected cells
T1 sequence (Q8TDV5 1-335): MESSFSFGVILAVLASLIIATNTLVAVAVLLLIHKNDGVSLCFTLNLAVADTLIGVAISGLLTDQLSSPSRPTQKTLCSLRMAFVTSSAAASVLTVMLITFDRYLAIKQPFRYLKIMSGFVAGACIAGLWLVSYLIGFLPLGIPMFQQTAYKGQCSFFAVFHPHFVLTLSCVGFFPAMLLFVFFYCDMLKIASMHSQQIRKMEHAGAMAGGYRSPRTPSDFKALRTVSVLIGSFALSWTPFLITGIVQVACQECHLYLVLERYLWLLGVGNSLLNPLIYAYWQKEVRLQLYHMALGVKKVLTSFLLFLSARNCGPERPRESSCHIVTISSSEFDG
Experimental: Flp-In-CHO cells (Invitrogen, Cat.#R758-07) are maintained in Ham's F12 medium supplemented with 10% fetal bovine serum, 1% antibiotic mixture and 2 mM L-glutamine. The cells are transfected with a DNA mixture containing human GPR119 in pcDNA5/FRT vector and the pOG44 vector (1:9) using Fugene6 (Roche), according to the manufacturer's instruction. After 48 hours, the medium is changed to medium supplemented with 400 μg/ml hygromycin B to initiate the selection of stably transfected cells.
To test the activity of compounds of the invention, Flp-In-CHO-hGPR119 cells are harvested and resuspended in DMEM plus 3% lipid-depleted fetal bovine serum. Forth μl of cells are plated in 384 well plates at a density of 15,000 cells/well. IBMX (3-isobutyl-1-methyl-xanthine) is added to the cells to a final concentration of 1 mM, followed by the addition of 500 nl of the compound to be tested. The cells are incubated at 37° C. for 30 minutes. Equal volume (20 μl) of the HTRF reagents, anti-cAMP-Cryptate and cAMP-XL665, are added to the cells. The plates are incubated at room temperature for 1 hour and read on a HTRF reader according to the manufacturer's instruction.
Compounds of Formula I, in free form or in pharmaceutically acceptable salt form, produced a concentration-dependent increase in intracellular cAMP level. […] For example, the following tables show some EC50 data for a representative sample of compounds of the invention: […]

Row | Structure (SMILES) | pEC50
1 | CCc1cnc(N2CCC(Oc3ccc(CN4CCN(S(C)(=O)=O)CC4)cc3)CC2)nc1 [Example A1] | 7.25
2 | CCc1cnc(N2CCC(Oc3ccc(CN4CCN(S(C)(=O)=O)CC4)c(C)c3)CC2)nc1 [Example A2, 5-ethyl-2-(4-(3-methyl-4-((4-(methylsulfonyl)piperazin-1-yl)methyl)phenoxy)piperidin-1-yl)pyrimidine] | 6.69
3 | CCc1cnc(N2CCC(Oc3ccc(CN4CCN(S(C)(=O)=O)CC4)cc3F)CC2)nc1 [Example A6, 5-ethyl-2-(4-(2-fluoro-4-((4-(methylsulfonyl)piperazin-1-yl)methyl)phenoxy)piperidin-1-yl)pyrimidine] | 7.70
4 | CCc1cnc(N2CCC(Oc3ccc(CN4CCN(S(C)(=O)=O)CC4)cc3Br)CC2)nc1 [Example A8, 2-(4-(2-bromo-4-((4-(methylsulfonyl)piperazin-1-yl)methyl)phenoxy)piperidin-1-yl)-5-ethylpyrimidine] | 8.30
5 | CCc1cnc(N2CCC(Oc3ccc(CN4CCN(S(C)(=O)=O)CC4)nc3)CC2)nc1 [Example A13, 5-ethyl-2-(4-(6-((4-(methylsulfonyl)piperazin-1-yl)methyl)pyridin-3-yloxy)piperidin-1-yl)pyrimidine] | 6.06
6 | CCc1cnc(N2CCC(Oc3ccc(CN4CCN(S(C)(=O)=O)CC4)cc3C(=O)OC)CC2)nc1 [Example A14, methyl 2-(1-(5-ethylpyrimidin-2-yl)piperidin-4-yloxy)-5-((4-(methylsulfonyl)piperazin-1-yl)methyl)benzoate] | 6.50
7 | CC1(OC(=O)N2CCC(Oc3ccc(CN4CCN(S(C)(=O)=O)CC4)cc3)CC2)CC1 [Example B2, 1-Methylcyclopropyl 4-(4-((4-(methylsulfonyl)piperazin-1-yl)methyl)phenoxy)piperidine-1-carboxylate] | 6.90
8 | CC1(OC(=O)N2CCC(Oc3ccc(CN4CCN(S(C)(=O)=O)CC4)cc3Cl)CC2)CC1 [Example B3, 1-Methylcyclopropyl 4-(2-chloro-4-((4-(methylsulfonyl)piperazin-1-yl)methyl)phenoxy)piperidine-1-carboxylate] | 7.66
9 | CS(=O)(=O)N1CCN(Cc2ccc(OC3CCN(c4ccc(C(F)(F)F)cn4)CC3)cc2)CC1 [Example B6, 1-(methylsulfonyl)-4-(4-(1-(5-(trifluoromethyl)pyridin-2-yl)piperidin-4-yloxy)benzyl)piperazine] | 6.66
10 | CC(C)c1noc(N2CCC(Oc3ccc(CN4CCN(S(C)(=O)=O)CC4)cc3Cl)CC2)n1 [Example B11, 5-(4-(2-chloro-4-((4-(methylsulfonyl)piperazin-1-yl)methyl)phenoxy)piperidin-1-yl)-3-isopropyl-1,2,4-oxadiazole] | 7.89
11 | CN(C)C(=O)c1cnc(N2CCC(Oc3ccc(CN4CCN(S(C)(=O)=O)CC4)cc3Cl)CC2)nc1 [Example B13, 2-(4-(2-chloro-4-((4-(methylsulfonyl)piperazin-1-yl)methyl)phenoxy)piperidin-1-yl)-N,N-dimethylpyrimidine-5-carboxamide] | 6.33
12 | Cn1nnc(-c2cnc(N3CCC(Oc4ccc(CN5CCN(S(C)(=O)=O)CC5)cc4Cl)CC3)nc2)n1 [Example B17, 2-(4-(2-Chloro-4-((4-(methylsulfonyl)piperazin-1-yl)methyl)phenoxy)piperidin-1-yl)-5-(2-methyl-2H-tetrazol-5-yl)pyrimidine] | 8.05

Other lines, results leading:

Row | pEC50 | Structure (SMILES)
13 | 6.73 | CCc1cnc(N2CCC(Oc3ccc(CN4CCN(S(C)(=O)=O)CC4)cc3CCCOC)CC2)nc1 [Example C2]
14 | 7.36 | CCc1cnc(N2CCC(Oc3ccc(CN4CCN(S(C)(=O)=O)CC4)cc3-c3ccn[nH]3)CC2)nc1 [Example C5, 5-ethyl-2-(4-(4-((4-(methylsulfonyl)piperazin-1-yl)methyl)-2-(1H-pyrazol-5-yl)phenoxy)piperidin-1-yl)pyrimidine]
15 | 6.87 | CCc1cnc(N2CCC(Oc3ccc(CN4CCN(S(C)(=O)=O)CC4)cc3NCCOC)CC2)nc1 [Example C9, 2-(1-(5-Ethylpyrimidin-2-yl)piperidin-4-yloxy)-N-(2-methoxyethyl)-5-((4-(methylsulfonyl)piperazin-1-yl)methyl)aniline]
16 | 8.10 | CCc1cnc(N2CCC(Oc3ccc(CN4CCN(S(=O)(=O)CCCO)CC4)cc3Cl)CC2)nc1 [Example D1, 3-(4-(3-Chloro-4-(1-(5-ethylpyrimidin-2-yl)piperidin-4-yloxy)benzyl)piperazin-1-ylsulfonyl)propan-1-ol]
17 | 8.52 | CCc1cnc(N2CCC(Oc3ccc(CC4CCN(S(C)(=O)=O)CC4)cc3Cl)CC2)nc1 [Example E2, 2-(4-(2-Chloro-4-((1-(methylsulfonyl)piperidin-4-yl)methyl)phenoxy)piperidin-1-yl)-5-ethylpyrimidine]
18 | 6.09 | CCc1cnc(N2CCC(Oc3ccc(CN4CCN(S(C)(=O)=O)CC4=O)cc3Cl)CC2)nc1 [Example E4, 1-(3-Chloro-4-(1-(5-ethylpyrimidin-2-yl)piperidin-4-yloxy)benzyl)-4-(methylsulfonyl)piperazin-2-one]
19 | 5.57 | CCc1cnc(N2CCC(Oc3ccc(CN4CCC(c5nnn(C)n5)CC4)cc3Cl)CC2)nc1 [Example E12, 2-(4-(2-chloro-4-((4-(2-methyl-2H-tetrazol-5-yl)piperidin-1-yl)methyl)phenoxy)piperidin-1-yl)-5-ethylpyrimidine]
20 | 6.94 | CCc1cnc(N2CCC(Oc3ccc(CN4CC(N(C)S(C)(=O)=O)C4)cc3Cl)CC2)nc1 [Example E15, N-(1-(3-Chloro-4-(1-(5-ethylpyrimidin-2-yl)piperidin-4-yloxy)benzyl)azetidin-3-yl)-N-methylmethanesulfonamide]
